From patent US6897237B2, “MMP-12 inhibitors” (Shionogi & Co. Ltd., priority 2000, dated 2005)

What was measured:
MMP-8 catalytic domain = target: T1, MMP-8 catalytic domain (Homo sapiens, UniProt P22894); experiment: Assay for inhibitory activities on MMPs (fluorogenic peptide substrate): MMP-8; assay type: biochemical; details: substrate MOCAc-Pro-Leu-Gly-Leu-A2Pr(DNP)-Ala-Arg-NH2
T1 construct: catalytic domain (^99Phe˜^262Gly); His-tag; enterokinase digestion-site; made in house; host or cells: Escherichia coli
T1 sequence (P22894 99-262): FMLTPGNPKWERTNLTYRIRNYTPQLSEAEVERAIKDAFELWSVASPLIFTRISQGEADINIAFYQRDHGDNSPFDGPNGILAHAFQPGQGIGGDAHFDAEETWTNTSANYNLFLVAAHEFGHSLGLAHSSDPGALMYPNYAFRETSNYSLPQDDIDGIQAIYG
Description: In regard to MMP-8, catalytic domain (^99Phe˜^262Gly) was amplified with PCR using commercial available Human Bone Marrow cDNA. This was cloned in Escherichia. coli expression vector pTrc99AHE inserted with His-tag sequence and enterokinase digestion-site, induced and expressed by IPTG (Isopropyl-β-D-thiogalactopyranoside) and expressed in a insoluble fraction (Than F. Ho, M. Walid Qoronfleh, Robert C. Wahl, Trica A. Pulvino, Karen J. Vavra, Joe Falvo, Tracey M. Banks, Patricia G. Brake and Richard B. Ciccarelli: Gene expression, purification and characterization of recombinant human neutrophil collagenase. Gene 146, (1994) 297-301, Prepared by the a improved method of this material). Isolation of MMP-8 from insoluble fraction was carried out by dissolving in modifier (6M urea) by a usual method and purification with metal chelate chromatography. And then removing modifier (6M urea) with dialysis and refolding of the enzyme spontaneously gave activated MMP-8.
(§1) The enzymatic activity on MMPs was analyzed by the method described in “C. Graham Knight, Frances Willenbrock and Gillian Murphy: A novel coumarin-labelled peptide for sensitive continuous assays of the matrix metalloproteinases: FEBS LETT., 296, (1992), 263-266”. The substrate: MOCAc-Pro-Leu-Gly-Leu-A2Pr(DNP)-Ala-Arg-NH2 was purchased from Peptide Institute, Inc., Osaka, Japan. The measurement of the inhibitory activities (IC50) was carried out by the following four methods;
(§2) (A) Reaction with substrate, enzyme (MMPs) and inhibitor
(§3) (B) Reaction with substrate and inhibitor, without enzyme
(§4) (C) Reaction with substrate and enzyme (MMPs), without inhibitor
(§5) (D) Reaction with substrate only
(§6) IC50 values were calculated by using the following formula and each fluorescence values of above four methods (A to D).
(§7) % inhibition={1−(A−B)/(C−D)}×100
(§8) IC50 means the concentration required to inhibit 50% of the enzyme activity.

MMP-1 = target: T2, MMP-1 (Homo sapiens, UniProt P03956); experiment: Assay for inhibitory activities on MMPs (fluorogenic peptide substrate): MMP-1; assay type: biochemical; details: substrate MOCAc-Pro-Leu-Gly-Leu-A2Pr(DNP)-Ala-Arg-NH2
T2 construct: purchased Yagai
T2 sequence (P03956 100-469): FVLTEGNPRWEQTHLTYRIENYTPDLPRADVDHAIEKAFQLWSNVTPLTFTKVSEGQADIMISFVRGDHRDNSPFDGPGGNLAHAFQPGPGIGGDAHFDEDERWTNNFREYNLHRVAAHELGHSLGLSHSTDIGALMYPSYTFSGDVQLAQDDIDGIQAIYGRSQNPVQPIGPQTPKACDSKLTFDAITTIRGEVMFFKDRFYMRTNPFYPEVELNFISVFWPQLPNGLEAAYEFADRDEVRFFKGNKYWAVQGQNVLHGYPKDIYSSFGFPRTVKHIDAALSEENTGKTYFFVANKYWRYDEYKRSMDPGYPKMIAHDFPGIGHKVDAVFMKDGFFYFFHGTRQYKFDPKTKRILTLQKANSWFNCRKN
Experimental: MMP-1 was purchased from Yagai.
as §1, §2, §3, §4, §5, §6, §7, §8

MMP-13 catalytic domain = target: T3, MMP-13 catalytic domain (Homo sapiens, UniProt P45452); experiment: Assay for inhibitory activities on MMPs (fluorogenic peptide substrate): MMP-13; assay type: biochemical; details: substrate MOCAc-Pro-Leu-Gly-Leu-A2Pr(DNP)-Ala-Arg-NH2
T3 construct: catalytic domain (^104Tyr˜^267Gly); His-tag; enterokinase digestion-site; made in house; host or cells: Escherichia coli
Experimental: (§9) In regard to MMP-13, mRNA was prepared from carcinoma cell SW1353 derived from human cartilage stimulate by IL-1, TNF and catalytic domain (^104Tyr˜^267Gly) was amplified with RT-PCR. This was cloned in Escherichia coli expression vector pTrc99AHE inserted with His-tag sequence and enterokinase digestion-site, induced and expressed by IPTG (Isopropyl-β-D-thiogalactopyranoside) and expressed in a insoluble fraction. Isolation of MMP-1.3 from a insoluble fraction was carried out by dissolving in modifier (6M urea) by a usual method and purification with metal chelate chromatography (Ni Chelateing Sepharose). And then removing modifier (6M urea) with dialyze and refolding of the enzyme spontaneously gave activated MMP-13.
as §1, §2, §3, §4, §5, §6, §7, §8

MMP-12 catalytic domain = target: T4, MMP-12 catalytic domain (Homo sapiens, UniProt P39900); experiment: Assay for inhibitory activities on MMPs (fluorogenic peptide substrate): MMP-12; assay type: biochemical; details: substrate MOCAc-Pro-Leu-Gly-Leu-A2Pr(DNP)-Ala-Arg-NH2
T4 construct: catalytic domain(^100Phe˜^263Gly); His-tag; enterokinase digestion-site; made in house; host or cells: Escherichia coli
T4 sequence (P39900 100-263): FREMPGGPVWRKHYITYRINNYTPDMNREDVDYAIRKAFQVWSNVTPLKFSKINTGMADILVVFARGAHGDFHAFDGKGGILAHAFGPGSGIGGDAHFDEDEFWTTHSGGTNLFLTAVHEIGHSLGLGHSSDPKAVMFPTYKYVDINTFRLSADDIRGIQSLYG
Experimental: as §9, with “MMP-12,” for “MMP-13, mRNA was prepared from carcinoma cell SW1353 derived from human cartilage stimulate by IL-1, TNF and”, “domain(^100Phe˜^263Gly)” for “domain (^104Tyr˜^267Gly)”, “RT-PCR from Human Placenta Total RNA.” for “RT-PCR.”, “MMP-12” for “MMP-1.3”, “dialysis” for “dialyze”, “MMP-12.” for “MMP-13.”
as §1, §2, §3, §4, §5, §6, §7, §8

[1] = tested on: Sprague-Dawley male rats exposed to cigarette smoke; experiment: Cigarette smoke exposure in rats, lung mechanics; assay type: in vivo, rat; details: 30 mg/kg p.o. twice daily
Experimental: Sprague-Dawley male rats (390-430 g initial body weight) were exposed daily to smoke from commercial filtered cigarettes (30 cigarettes/rat/day, 5 days/week, for 7 to 8 weeks) with a smoke-generating and whole-body exposure system. The animals received 30 mg/kg p.o. twice daily of compound (B-6), which was suspended with 0.5% methyl cellulose. Vehicle animals received 2 ml/kg of 0.5% methyl cellulose. At 16-24 hr after the last exposure with cigarette smoke, anesthesia was induced with intraperitoneal injection of 40 mg/kg of pentobarbital sodium. Immediately after muscle relaxation with intravenous pancuronium bromide (0.3 mg/rat), animals were mechanically ventilated with a pressure-limited ventilator and were evaluated dynamic compliance. After exsanguination, the lung was attached to a glass syringe via a connector tube and continuously inflated through the airway to a transpulmonary pressure of 30 cmH2O, deflated them to a Ptp of 0 cmH2O, and aspirated them to a Ptp of −20 cmH2O. The change of Ptp and lung volume was monitored and recorded as the deflation pressure-volume (P-V) curve. Static lung compliance defined as the slope of steep portion of the deflation P-V curve was evaluated. Inspiratory capacity (IC) defined as the difference in lung volume between total lung capacity at a Ptp of 25 cmH2O and functional residual capacity at a Ptp of 0 cmH2O was evaluated.
Data are expressed as means ±S.D. Statistical analysis was performed with one-sided Student's t-test. A value of P<0.05 was considered significant.

[2] = cigarette smoke exposure 7 to 8 weeks, means ± S.D., n = 7

`C[C@@H](NS(=O)(=O)c1ccc(C#Cc2ccc3ccccc3c2)s1)C(=O)O` [Compound B-6] gave an IC50 (MMP-8 catalytic domain) of 2090 nM, an IC50 (MMP-1) of over 10000 nM and an IC50 (MMP-13 catalytic domain) of 840 nM. The IC50 (MMP-12 catalytic domain) was 23 nM, the “effect on increase of dynamic compliance by cigarette smoke exposure (in words)” value [1] was “tended to attenuate the increase” and the “effect on increase of inspiratory capacity by cigarette smoke exposure (in words)” value [1] was “tended to attenuate the increase”. For the same molecule, the “effect on increase of static lung compliance by cigarette smoke exposure (in words)” value [1] was “significantly reduced the increase”, the Inspiratory capacity [1, 2] was 21.76 ± 1.85 mL/kg and the dynamic compliance [1, 2] was 0.96 ± 0.17 ml/cmH2O/kg. The Static lung compliance ([1]; cigarette smoke exposure 7 to 8 weeks, means ± S.D., n = 7, P < 0.05 vs. Cigarette smoke exposure) was 2.05 ± 0.25 ml/cmH2O/kg.
